Patent US12077503B2, “Substituted cyclic amides and their use as herbicides” (FMC CORPORATION, priority 2015, dated 2024)

Legend:
Type in all cases: in vivo
rice (Oryra sativa) = assay: Test B flooded paddy test; settings: Flood, 250 g ai/ha; 0 to 100 scale where 0 is no effect and 100 is complete control; 13 to 15 d
Outline: (§1)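 Percent control, visually estimated after 13–15 d in the greenhouse on a 0–100 basis, compares treated pots with untreated ones; compound was put into paddy water 3 cm above the soil when plants had two leaves.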

[1] = test system: ducksalad (Heteranthera limosa); assay: Test B flooded paddy test; settings: Flood, 250 g ai/ha; 0 to 100 scale where 0 is no effect and 100 is complete control; 13 to 15 d
Outline: as §1

[2] = test system: barnyardgrass (Echinochloa crus-galli); assay: Test B flooded paddy test; settings: Flood, 250 g ai/ha; 0 to 100 scale where 0 is no effect and 100 is complete control; 13 to 15 d
Outline: as §1

[3] = test system: sedge, umbrella (small-flower umbrella sedge, Cyperus difformis); assay: Test B flooded paddy test; settings: Flood, 250 g ai/ha; 0 to 100 scale where 0 is no effect and 100 is complete control; 13 to 15 d
Outline: as §1

[4] = test system: Galium (catchweed bedstraw, Galium aparine); assay: Test A postemergence; settings: postemergence; for Galium plant response rating: 125 g ai/ha, visual injury rating on 0 to 100 scale (0 no effect, 100 complete control), approx. 10 d; for Plant response rating, Galium: 500 g ai/ha, 0 to 100 scale, 0 no effect, 100 complete control
Outline: (§2)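 Visual injury, scored on a 0–100 scale relative to untreated controls, was recorded about 10 d after application. Treatments were a preemergence soil spray over planted seeds or a postemergence spray on plants at the one- to two-leaf stage, 2 to 10 cm tall, all in loam soil–sand blend in the greenhouse.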

[5] = test system: giant foxtail (Setaria faberii); assay: Test A postemergence; settings: postemergence; for Foxtail, Giant plant response rating: 125 g ai/ha, visual injury rating on 0 to 100 scale (0 no effect, 100 complete control), approx. 10 d; for Plant response rating, Foxtail, Giant: 500 g ai/ha, 0 to 100 scale, 0 no effect, 100 complete control
Outline: as §2

[6] = test system: blackgrass (Alopecurus myosuroides); assay: Test A postemergence; settings: postemergence; for Blackgrass plant response rating: 125 g ai/ha, visual injury rating on 0 to 100 scale (0 no effect, 100 complete control), approx. 10 d; for Plant response rating, Blackgrass: 500 g ai/ha, 0 to 100 scale, 0 no effect, 100 complete control
Outline: as §2

[7] = test system: ragweed (common ragweed, Ambrosia elatior); assay: Test A postemergence; settings: postemergence; for Ragweed plant response rating: 125 g ai/ha, visual injury rating on 0 to 100 scale (0 no effect, 100 complete control), approx. 10 d; for Plant response rating, Ragweed: 500 g ai/ha, 0 to 100 scale, 0 no effect, 100 complete control
Outline: as §2

[8] = test system: wheat (Triticum aestivum); assay: Test A postemergence; settings: postemergence; for Wheat plant response rating: 125 g ai/ha, visual injury rating on 0 to 100 scale (0 no effect, 100 complete control), approx. 10 d; for Plant response rating, Wheat: 500 g ai/ha, 0 to 100 scale, 0 no effect, 100 complete control
Outline: as §2

[9] = test system: ryegrass, Italian (Italian ryegrass, Lolium multiflorum); assay: Test A postemergence; settings: postemergence; for Ryegrass, Italian plant response rating: 125 g ai/ha, visual injury rating on 0 to 100 scale (0 no effect, 100 complete control), approx. 10 d; for Plant response rating, Ryegrass, Italian: 500 g ai/ha, 0 to 100 scale, 0 no effect, 100 complete control
Outline: as §2

[10] = test system: pigweed (Amaranthus retroflexus); assay: Test A postemergence; settings: postemergence; for Pigweed plant response rating: 125 g ai/ha, visual injury rating on 0 to 100 scale (0 no effect, 100 complete control), approx. 10 d; for Plant response rating, Pigweed: 500 g ai/ha, 0 to 100 scale, 0 no effect, 100 complete control
Outline: as §2

Kochia (Kochia scoparia) [11] = assay: Test A postemergence; settings: postemergence; for Kochia plant response rating: 125 g ai/ha, visual injury rating on 0 to 100 scale (0 no effect, 100 complete control), approx. 10 d; for Plant response rating, Kochia: 500 g ai/ha, 0 to 100 scale, 0 no effect, 100 complete control
Outline: as §2

[12] = test system: barnyardgrass (Echinochloa crus-galli); assay: Test A postemergence; settings: postemergence; for Barnyardgrass plant response rating: 125 g ai/ha, visual injury rating on 0 to 100 scale (0 no effect, 100 complete control), approx. 10 d; for Plant response rating, Barnyardgrass: 500 g ai/ha, 0 to 100 scale, 0 no effect, 100 complete control
Outline: as §2

corn (Zea mays) = assay: Test A postemergence; settings: postemergence; for Corn plant response rating: 125 g ai/ha, visual injury rating on 0 to 100 scale (0 no effect, 100 complete control), approx. 10 d; for Plant response rating, Corn: 500 g ai/ha, 0 to 100 scale, 0 no effect, 100 complete control
Outline: as §2

[13] = test system: giant foxtail (Setaria faberii); assay: Test A preemergence; settings: for Plant response rating, Foxtail, Giant: 125 g ai/ha, preemergence, 0 to 100 scale (0 no effect, 100 complete control); for Foxtail, Giant plant response rating (0 to 100 scale, 0 is no effect, 100 is complete control): Preemergence, 500 g ai/ha, visual injury approx. 10 d
Outline: as §2

[14] = test system: ragweed (common ragweed, Ambrosia elatior); assay: Test A preemergence; settings: for Plant response rating, Ragweed: 125 g ai/ha, preemergence, 0 to 100 scale (0 no effect, 100 complete control); for Ragweed plant response rating (0 to 100 scale, 0 is no effect, 100 is complete control): Preemergence, 500 g ai/ha, visual injury approx. 10 d
Outline: as §2

[15] = test system: ryegrass, Italian (Italian ryegrass, Lolium multiflorum); assay: Test A preemergence; settings: for Plant response rating, Ryegrass, Italian: 125 g ai/ha, preemergence, 0 to 100 scale (0 no effect, 100 complete control); for Ryegrass, Italian plant response rating (0 to 100 scale, 0 is no effect, 100 is complete control): Preemergence, 500 g ai/ha, visual injury approx. 10 d
Outline: as §2

[16] = test system: pigweed (Amaranthus retroflexus); assay: Test A preemergence; settings: for Plant response rating, Pigweed: 125 g ai/ha, preemergence, 0 to 100 scale (0 no effect, 100 complete control); for Pigweed plant response rating (0 to 100 scale, 0 is no effect, 100 is complete control): Preemergence, 500 g ai/ha, visual injury approx. 10 d
Kochia (Kochia scoparia) [17] = assay: Test A preemergence; settings: for Plant response rating, Kochia: 125 g ai/ha, preemergence, 0 to 100 scale (0 no effect, 100 complete control); for Kochia plant response rating (0 to 100 scale, 0 is no effect, 100 is complete control): Preemergence, 500 g ai/ha, visual injury approx. 10 d
Outline: as §2

[18] = test system: barnyardgrass (Echinochloa crus-galli); assay: Test A preemergence; settings: for Plant response rating, Barnyardgrass: 125 g ai/ha, preemergence, 0 to 100 scale (0 no effect, 100 complete control); for Barnyardgrass plant response rating (0 to 100 scale, 0 is no effect, 100 is complete control): Preemergence, 500 g ai/ha, visual injury approx. 10 d
Outline: as §2

SMILES: O=C(Nc1cccc(F)c1F)C1C(=S)NCC1c1cccc(C(F)(F)F)c1 (stereo not drawn) [Compound 454]
- Plant response rating, Rice (rice (Oryra sativa)): 15
- Plant response rating, Ducksalad [1]: 60
- Plant response rating, Barnyardgrass [2]: 40
- Plant response rating, Sedge, Umbrella [3]: 0
- Galium plant response rating [4]: 0
- Plant response rating, Galium [4]: 30
- Foxtail, Giant plant response rating [5]: 70
- Plant response rating, Foxtail, Giant [5]: 80
- Blackgrass plant response rating [6]: 0
- Plant response rating, Blackgrass [6]: 50
- Ragweed plant response rating [7]: 0
- Plant response rating, Ragweed [7]: 0
- Wheat plant response rating [8]: 20
- Plant response rating, Wheat [8]: 40
- Ryegrass, Italian plant response rating [9]: 0
- Plant response rating, Ryegrass, Italian [9]: 40
- Pigweed plant response rating [10]: 0
- Plant response rating, Pigweed [10]: 0
- Kochia plant response rating (Kochia (Kochia scoparia) [11]): 0
- Plant response rating, Kochia (Kochia (Kochia scoparia) [11]): 0
- Barnyardgrass plant response rating [12]: 60
- Plant response rating, Barnyardgrass [12]: 80
- Corn plant response rating (corn (Zea mays)): 50
- Plant response rating, Corn (corn (Zea mays)): 70
- Plant response rating, Foxtail, Giant [13]: 80
- Foxtail, Giant plant response rating (0 to 100 scale, 0 is no effect, 100 is complete control) [13]: 90
- Plant response rating, Ragweed [14]: 0
- Ragweed plant response rating (0 to 100 scale, 0 is no effect, 100 is complete control) [14]: 0
- Plant response rating, Ryegrass, Italian [15]: 0
- Ryegrass, Italian plant response rating (0 to 100 scale, 0 is no effect, 100 is complete control) [15]: 30
- Plant response rating, Pigweed [16]: 0
- Pigweed plant response rating (0 to 100 scale, 0 is no effect, 100 is complete control) [16]: 0
- Plant response rating, Kochia (Kochia (Kochia scoparia) [17]): 0
- Kochia plant response rating (0 to 100 scale, 0 is no effect, 100 is complete control) (Kochia (Kochia scoparia) [17]): 0
- Plant response rating, Barnyardgrass [18]: 70
- Barnyardgrass plant response rating (0 to 100 scale, 0 is no effect, 100 is complete control) [18]: 80

SMILES: Cc1c(F)ccc(NC(=O)C2C(=O)NCC2c2cc(F)cc(F)c2)c1F (stereo not drawn) [Compound 461]
- Plant response rating, Rice (rice (Oryra sativa)): 0
- Plant response rating, Ducksalad [1]: 100
- Plant response rating, Barnyardgrass [2]: 60
- Plant response rating, Sedge, Umbrella [3]: 0
- Galium plant response rating [4]: 0
- Plant response rating, Galium [4]: 20
- Foxtail, Giant plant response rating [5]: 80
- Plant response rating, Foxtail, Giant [5]: 80
- Blackgrass plant response rating [6]: 0
- Plant response rating, Blackgrass [6]: 0
- Ragweed plant response rating [7]: 0
- Plant response rating, Ragweed [7]: 0
- Wheat plant response rating [8]: 0
- Plant response rating, Wheat [8]: 0
- Ryegrass, Italian plant response rating [9]: 0
- Plant response rating, Ryegrass, Italian [9]: 20
- Pigweed plant response rating [10]: 0
- Plant response rating, Pigweed [10]: 0
- Kochia plant response rating (Kochia (Kochia scoparia) [11]): 0
- Plant response rating, Kochia (Kochia (Kochia scoparia) [11]): 0
- Barnyardgrass plant response rating [12]: 80
- Plant response rating, Barnyardgrass [12]: 90
- Corn plant response rating (corn (Zea mays)): 0
- Plant response rating, Corn (corn (Zea mays)): 0
- Plant response rating, Foxtail, Giant [13]: 90
- Foxtail, Giant plant response rating (0 to 100 scale, 0 is no effect, 100 is complete control) [13]: 90
- Plant response rating, Ragweed [14]: 0
- Ragweed plant response rating (0 to 100 scale, 0 is no effect, 100 is complete control) [14]: 0
- Plant response rating, Ryegrass, Italian [15]: 20
- Ryegrass, Italian plant response rating (0 to 100 scale, 0 is no effect, 100 is complete control) [15]: 20
- Plant response rating, Pigweed [16]: 0
- Pigweed plant response rating (0 to 100 scale, 0 is no effect, 100 is complete control) [16]: 0
- Plant response rating, Kochia (Kochia (Kochia scoparia) [17]): 0
- Kochia plant response rating (0 to 100 scale, 0 is no effect, 100 is complete control) (Kochia (Kochia scoparia) [17]): 50
- Plant response rating, Barnyardgrass [18]: 70
- Barnyardgrass plant response rating (0 to 100 scale, 0 is no effect, 100 is complete control) [18]: 90

SMILES: Cc1ccc(C2CNC(=O)C2C(=O)Nc2ccc(F)c(C)c2F)cc1F (stereo not drawn) [Compound 462]
- Plant response rating, Rice (rice (Oryra sativa)): 0
- Plant response rating, Ducksalad [1]: 85
- Plant response rating, Barnyardgrass [2]: 40
- Plant response rating, Sedge, Umbrella [3]: 0
- Galium plant response rating [4]: 0
- Plant response rating, Galium [4]: 10
- Foxtail, Giant plant response rating [5]: 60
- Plant response rating, Foxtail, Giant [5]: 70
- Blackgrass plant response rating [6]: 20
- Plant response rating, Blackgrass [6]: 40
- Ragweed plant response rating [7]: 0
- Plant response rating, Ragweed [7]: 0
- Wheat plant response rating [8]: 0
- Plant response rating, Wheat [8]: 0
- Ryegrass, Italian plant response rating [9]: 0
- Plant response rating, Ryegrass, Italian [9]: 0
- Pigweed plant response rating [10]: 0
- Plant response rating, Pigweed [10]: 0
- Kochia plant response rating (Kochia (Kochia scoparia) [11]): 0
- Plant response rating, Kochia (Kochia (Kochia scoparia) [11]): 0
- Barnyardgrass plant response rating [12]: 70
- Plant response rating, Barnyardgrass [12]: 80
- Corn plant response rating (corn (Zea mays)): 0
- Plant response rating, Corn (corn (Zea mays)): 0
- Plant response rating, Foxtail, Giant [13]: 80
- Foxtail, Giant plant response rating (0 to 100 scale, 0 is no effect, 100 is complete control) [13]: 90
- Plant response rating, Ragweed [14]: 10
- Ragweed plant response rating (0 to 100 scale, 0 is no effect, 100 is complete control) [14]: 50
- Plant response rating, Ryegrass, Italian [15]: 0
- Ryegrass, Italian plant response rating (0 to 100 scale, 0 is no effect, 100 is complete control) [15]: 0
- Plant response rating, Pigweed [16]: 0
- Pigweed plant response rating (0 to 100 scale, 0 is no effect, 100 is complete control) [16]: 0
- Plant response rating, Kochia (Kochia (Kochia scoparia) [17]): 30
- Kochia plant response rating (0 to 100 scale, 0 is no effect, 100 is complete control) (Kochia (Kochia scoparia) [17]): 70
- Plant response rating, Barnyardgrass [18]: 80
- Barnyardgrass plant response rating (0 to 100 scale, 0 is no effect, 100 is complete control) [18]: 90
